Test results as given in PubChem BioAssay AID1035470 (Broad Institute, 2014).
Records with an inconclusive call do not appear. Calls of active or inactive are those of the source.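 The calls were made as follows: active = compound lowering the normal-ribosome reporter at least twice as much as the humanized-ribosome reporter, growth loss under a set limit; inconclusive = no clear call, values can overlap the other calls; inactive = the rest.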

Tested on: E. coli WT-GFP vs G2058-humanized RFP, fluorescence, 24 h
Experiment: E. coli strain growth, wild-type against G2058 humanized RFP mutant – G2058 mutant RFP vs wild-type GFP, cherry-pick, two tests, dose response (AID 1035470)
[1] = E. coli WT-GFP vs G2058-humanized RFP mixed culture, total growth OD600, 24 h
[2] = measured here: G2058 humanized mutant RFP growth

For `O=C(Nc1ccc2nc(-c3ccccc3)[nH]c2c1)c1cccs1`, the AC50 was > 100 µM (inactive) and the AC50 [1] was 51.4 µM.
For `OCCN(Cc1ccccc1)Cc1ccc(F)c(F)c1`, the AC50 was > 100 µM (inactive).
For `CCOC(=O)c1c(CS(=O)(=O)c2ccccc2)n(C)c2cc(Br)c(O)cc12`, the AC50 was > 100 µM (inactive).
With `CC(C)NC(=O)N(C)C[C@H]1OCCCC[C@@H](C)Oc2ccc(NC(=O)c3ccccc3)cc2C(=O)N([C@@H](C)CO)C[C@H]1C` the AC50 was > 100 µM (inactive).
With `COc1ccc(-c2nc3ccc(Cl)cn3c2Cc2cccc(F)c2)cc1OC` the AC50 was > 100 µM (inactive).
`C=CCn1c(C)cc(C(=O)CSc2nnc(C3CC3)n2C2CC2)c1C` gave an AC50 [2] of 48.6 µM.
For `O=C1c2ccccc2C(c2nnnn2C2CCCCC2)N1CCc1ccc(O)cc1` (stereo not drawn), the AC50 was > 100 µM (inactive).
For `COc1ccc(-n2ccnc2SCC(=O)NCc2ccccc2)c(OC)c1`, the AC50 was > 100 µM (inactive) and the AC50 [1] was over 100 µM.
With `CCc1nnc(NS(=O)(=O)c2ccc(NC(=O)c3cccc(Cl)c3)cc2)s1` the AC50 was > 100 µM (inactive), the AC50 [1] was over 100 µM and the AC50 [2] was over 100 µM.
With `CCOC(=O)c1cccc(OS(=O)(=O)Cc2ccccc2)c1` the AC50 [1] was over 100 µM.
With `CC(=O)Nc1cccc(OCCCOc2cccc([N+](=O)[O-])c2)c1` the AC50 was > 100 µM (inactive) and the AC50 [1] was over 100 µM.
`NC(=O)CSc1nc2cc([N+](=O)[O-])ccc2n1-c1cccc(C(F)(F)F)c1` was tested, and the AC50 was > 100 µM (inactive) and the AC50 [1] was over 100 µM.
In the case of `COc1ccc(OC)c(C(=O)COC(=O)c2ccc([N+](=O)[O-])o2)c1`, the AC50 is reported as > 100 µM (inactive) and the AC50 [1] is reported as over 100 µM.
For `CN(C)C(CNS(=O)(=O)c1cc([N+](=O)[O-])ccc1Cl)c1ccco1` (stereo not drawn), the AC50 was > 100 µM (inactive).
For `COc1ccc(NC(=O)CSc2nnc(Cc3ccccc3)o2)c(OC)c1`, the AC50 was > 100 µM (inactive) and the AC50 [1] was over 100 µM.
`Cc1ccc(C2NC(=O)c3[nH]nc(-c4ccccc4)c32)cc1` (stereo not drawn) was tested, and the AC50 was > 100 µM (inactive) and the AC50 [1] was over 100 µM.
Compound `Cc1noc(C)c1NC(=O)Nc1ccc2c(c1)C(=O)N([C@@H](C)CO)C[C@@H](C)[C@H](CN(C)C(=O)Nc1ccc3c(c1)OCO3)OCCCC[C@H](C)O2` has an AC50 [1] of over 100 µM.
`COC(=O)c1ccc2nc(-c3ccco3)c(Cc3ccc(C)cc3)n2c1` gave an AC50 [1] of over 100 µM.
For `CC(C)C[C@H]1COc2cc(Br)ccc2S(=O)(=O)N1`, the AC50 was > 100 µM (inactive), the AC50 [1] was over 100 µM and the AC50 [2] was over 100 µM.
In the case of `CCOC(=O)Cc1nnc(NC(=O)CSc2nc3ccccc3[nH]2)s1`, the AC50 is reported as > 100 µM (inactive).
For `CC[n+]1c(C)cc2c(sc3ccccc32)c1C`, the AC50 [1] was over 100 µM and the AC50 [2] was over 100 µM.
Work on `Cc1cccc(-c2ccc([C@@H]3[C@@H](CO)N4CCCCN(S(=O)(=O)c5ccccc5C)C[C@H]34)cc2)c1` yielded an AC50 [1] of over 100 µM.
For `COC(=O)c1sc(C(C)(C)C)cc1CS(=O)(=O)c1ccc(Cl)cc1`, the AC50 was > 100 µM (inactive) and the AC50 [1] was over 100 µM.
With `Cc1nn(-c2cccc(Cl)c2)nc1C(=O)O` the AC50 was > 100 µM (inactive) and the AC50 [1] was over 100 µM.
Compound `COc1ccc(OC)c(NC(=O)COc2ccc(S(=O)(=O)NC(C)C)cc2)c1` has an AC50 [1] of over 100 µM.
In the case of `COc1ccc(-c2nc3c(C)cc(Br)cn3c2Cc2ccc(C)cc2)cc1OC`, the AC50 is reported as > 100 µM (inactive).
`O=C(CCCn1c(=S)[nH]c2ccsc2c1=O)Nc1ccc2c(c1)OCCO2` was tested, and the AC50 was > 100 µM (inactive).
`COc1ccc(OC)c(-c2nnc3n2N=C(c2ccc(OC)c(OC4CCOC4)c2)CS3)c1` (stereo not drawn) was tested, and the AC50 was > 100 µM (inactive).
With `CCCNC(=O)c1cc(C2CCCN(S(=O)(=O)c3cccc4cccnc34)C2)on1` (stereo not drawn) the AC50 was > 100 µM (inactive).
For `O=C(CN1CCN(S(=O)(=O)c2ccc(Cl)cc2)CC1)Nc1ccc2c(c1)CCC2`, the AC50 was > 100 µM (inactive).
In the case of `O=C(CSCc1c(Cl)cccc1Cl)NCc1ccccn1`, the AC50 is reported as > 100 µM (inactive).
`O=C(CCCSc1nc2ccccc2s1)NCc1ccc2c(c1)OCO2` was tested, and the AC50 was > 100 µM (inactive).
`COc1ccc(OC)c(-c2csc(NC(=O)C3COc4ccccc4O3)n2)c1` (stereo not drawn) was tested, and the AC50 was > 100 µM (inactive) and the AC50 [1] was over 100 µM.
In the case of `CCCCCCC(=O)N1CCCC(c2nc(-c3cccc(OC)c3)no2)C1` (stereo not drawn), the AC50 is reported as > 100 µM (inactive) and the AC50 [2] is reported as over 100 µM.
In the case of `O=c1c2ccccc2cnn1Cc1n[nH]c(=S)n1C1CC2CCC1C2` (stereo not drawn), the AC50 is reported as > 100 µM (inactive) and the AC50 [1] is reported as over 100 µM.
`CN(CC(=O)Nc1ccc(F)cc1)C(=O)COc1ccc([N+](=O)[O-])cc1Cl` was tested, and the AC50 was > 100 µM (inactive) and the AC50 [1] was over 100 µM.
In the case of `O=C(CC1C(=O)N(c2ccc(Cl)cc2)C(=S)N1CCc1ccncc1)Nc1ccc(F)cc1` (stereo not drawn), the AC50 is reported as > 100 µM (inactive) and the AC50 [1] is reported as 41.8 µM.
`O=C(Nc1ccc(F)c(Cl)c1)C1CC2CCC1C2` (stereo not drawn) was tested, and the AC50 was > 100 µM (inactive).
Compound `O=C(C[n+]1ccc(Cc2ccccc2)cc1)Nc1ccc([N+](=O)[O-])cc1Cl` has an AC50 [2] of over 100 µM.
`CCOc1ccccc1NC(=O)c1cc(SC)ccc1Cl` was tested, and the AC50 was > 100 µM (inactive) and the AC50 [1] was over 100 µM.
`COc1ccc(C#Cc2ccc([C@@H]3[C@@H](CO)N4CCCCN(C(=O)Nc5ccccc5F)C[C@H]34)cc2)cc1` was tested, and the AC50 was > 100 µM (inactive).
`Cc1ccc(OCCCC(=O)NC(C)c2ccccc2)c(C)c1` (stereo not drawn) was tested, and the AC50 was > 100 µM (inactive).
In the case of `COc1ccccc1OCC(=O)Nc1ccc(S(=O)(=O)N2CCCCCC2)cc1`, the AC50 is reported as > 100 µM (inactive) and the AC50 [1] is reported as over 100 µM.
With `CCC1CCCCN1C(=O)CSc1nnc(-c2cccc(Cl)c2)o1` (stereo not drawn) the AC50 [1] was over 100 µM.
For `O=C(NCc1ccccc1Cl)[C@H]1CCCN1C(=O)[C@H]1CCCN1C(=O)c1cccc2ccccc12`, the AC50 was > 100 µM (inactive) and the AC50 [1] was over 100 µM.
With `COc1ccc(CC(=O)NCc2csc(-c3cccs3)n2)cc1OC` the AC50 was > 100 µM (inactive).
In the case of `CC(=O)c1ccc(OCC(=O)Nc2ccc3c(c2)CCC3)cc1`, the AC50 is reported as > 100 µM (inactive) and the AC50 [1] is reported as over 100 µM.
`COc1ccc2c(c1)c1ncn(Cc3ccccn3)c(=O)c1n2C` was tested, and the AC50 was > 100 µM (inactive) and the AC50 [1] was over 100 µM.
With `COc1ccc(-c2cn3c(C)c(C(=O)Nc4cccc(C)n4)sc3n2)cc1` the AC50 was > 100 µM (inactive) and the AC50 [1] was over 100 µM.
`CCOC(=O)c1cnc2c(c(C)nn2C)c1Oc1ccc(OC)cc1` was tested, and the AC50 was > 100 µM (inactive).
`C[C@H]1CN([C@@H](C)CO)C(=O)CCCn2nncc2CO[C@@H]1CN(C)Cc1ccccc1C(F)(F)F` was tested, and the AC50 [1] was over 100 µM and the AC50 [2] was 6.94 µM.
`CCOc1ccccc1OCCCC(=O)N1CCN(S(=O)(=O)c2cc(F)ccc2F)CC1` was tested, and the AC50 was > 100 µM (inactive).
With `O=C(O)c1cc(-c2ccc(Cl)s2)nc2ccccc12` the AC50 was > 100 µM (inactive).
`Cc1cc(C(=O)Nc2ccc3ccccc3c2)c(C)o1` was tested, and the AC50 was > 100 µM (inactive) and the AC50 [1] was over 100 µM.
For `O=S(=O)(c1ccc(Cl)cc1)N1CCN=C1SCc1cccc(Cl)c1`, the AC50 was > 100 µM (inactive).
`CC1CCC2(CC1)SCC(=O)N2c1ccc(F)cc1` (stereo not drawn) was tested, and the AC50 was > 100 µM (inactive), the AC50 [1] was over 100 µM and the AC50 [2] was 35.3 µM.
`COc1ccccc1N(C)S(=O)(=O)c1ccc(Cl)c(C(=O)NC2=NCCS2)c1` was tested, and the AC50 [2] was 46.3 µM.
With `O=C(Nc1cccc(Cl)c1)N1C[C@H]2[C@@H](c3ccccc31)[C@H](CO)N2Cc1ccncc1` the AC50 was > 100 µM (inactive).
`O=C(CCNC(=O)c1ccco1)Nc1cccc(Br)c1` gave an AC50 [1] of over 100 µM.
With `COC(=O)c1ccc(CN2CCCC(CO)(Cc3ccccc3F)C2)cc1` (stereo not drawn) the AC50 was > 100 µM (inactive) and the AC50 [1] was over 100 µM.
For `Cc1cc(-c2ccc(C)c(S(=O)(=O)NCC3CCN(Cc4ccccc4F)CC3)c2)on1`, the AC50 was > 100 µM (inactive) and the AC50 [1] was over 100 µM.
For `CC(=O)Oc1ccc(N(c2ccccc2)S(=O)(=O)c2ccc(C)cc2)cc1`, the AC50 [1] was over 100 µM.
